Results on five compounds are retold here after PubChem BioAssay AID1259407 (Chemical Carcinogenesis Research Information System (CCRIS), 2018).

Calls of active or inactive are those of the source. How the calls were made is not given here.

This series deals with CCRIS mutagenicity, Ames/micronucleus/aberration tests. Kind of series: CCRIS mutagenicity studies.
Where [1] appears, read: Test System: AMES SALMONELLA TYPHIMURIUM, Strain/Indicator: TA98, Metabolic Activation: HAMSTER, LIVER, S-9, AROCLOR 1254 (10%), Method: PREINCUBATION
Setting [2] is: Test System: AMES SALMONELLA TYPHIMURIUM, Strain/Indicator: TA98, Metabolic Activation: NONE, Method: PREINCUBATION
The mark [3] stands for this setting: Test System: AMES SALMONELLA TYPHIMURIUM, Strain/Indicator: TA98, Metabolic Activation: NONE, Method: STANDARD PLATE.
[4] abbreviates: Test System: AMES SALMONELLA TYPHIMURIUM, Strain/Indicator: TA98, Metabolic Activation: RAT, LIVER, S-9, AROCLOR 1254 (10%), Method: PREINCUBATION
The mark [5] stands for this setting: Test System: AMES SALMONELLA TYPHIMURIUM, Strain/Indicator: TA100, Metabolic Activation: HAMSTER, LIVER, S-9, AROCLOR 1254 (10%), Method: PREINCUBATION
Where [6] appears, read: Test System: AMES SALMONELLA TYPHIMURIUM, Strain/Indicator: TA100, Metabolic Activation: NONE, Method: PREINCUBATION
The mark [7] stands for this setting: Test System: AMES SALMONELLA TYPHIMURIUM, Strain/Indicator: TA100, Metabolic Activation: NONE, Method: STANDARD PLATE.
[8] abbreviates: Test System: AMES SALMONELLA TYPHIMURIUM, Strain/Indicator: TA100, Metabolic Activation: RAT, LIVER, S-9, AROCLOR 1254 (10%), Method: PREINCUBATION
Setting [9] is: Test System: AMES SALMONELLA TYPHIMURIUM, Strain/Indicator: TA1535, Metabolic Activation: HAMSTER, LIVER, S-9, AROCLOR 1254 (10%), Method: PREINCUBATION
Where [10] appears, read: Test System: AMES SALMONELLA TYPHIMURIUM, Strain/Indicator: TA1535, Metabolic Activation: NONE, Method: PREINCUBATION
Where [11] appears, read: Test System: AMES SALMONELLA TYPHIMURIUM, Strain/Indicator: TA1535, Metabolic Activation: RAT, LIVER, S-9, AROCLOR 1254 (10%), Method: PREINCUBATION
The mark [12] stands for this setting: Test System: AMES SALMONELLA TYPHIMURIUM, Strain/Indicator: TA1537, Metabolic Activation: HAMSTER, LIVER, S-9, AROCLOR 1254 (10%), Method: PREINCUBATION
Where [13] appears, read: Test System: AMES SALMONELLA TYPHIMURIUM, Strain/Indicator: TA1537, Metabolic Activation: NONE, Method: PREINCUBATION
[14] abbreviates: Test System: AMES SALMONELLA TYPHIMURIUM, Strain/Indicator: TA1537, Metabolic Activation: RAT, LIVER, S-9, AROCLOR 1254 (10%), Method: PREINCUBATION
Where [15] appears, read: Test System: AMES SALMONELLA TYPHIMURIUM, Strain/Indicator: TA100, Metabolic Activation: RAT, LIVER, S-9, AROCLOR 1254, Method: STANDARD PLATE.

As to `CC(C)Nc1ccc(Nc2ccccc2)cc1`, the mutagenic call is, setting by setting: under setting [1], “inactive; negative”; under setting [2], “inactive; negative”; under setting [3], “inactive; negative”; (Test System: AMES SALMONELLA TYPHIMURIUM, Strain/Indicator: TA98, Metabolic Activation: RAT LIVER S-9, PHENOBARBITAL AND BETA-NAPHTHOFLAVONE, Method: PREINCUBATION) “inactive; negative”; under setting [4], “inactive; negative”; (Test System: AMES SALMONELLA TYPHIMURIUM, Strain/Indicator: TA98, Metabolic Activation: S-9, Method: STANDARD PLATE) “inactive; negative”. Further, the mutagenic call under setting [5] is “inactive; negative”; the mutagenic call under setting [6] was “inactive; negative”; the mutagenic call under setting [7] was “inactive; negative”; the mutagenic call (Test System: AMES SALMONELLA TYPHIMURIUM, Strain/Indicator: TA100, Metabolic Activation: RAT LIVER S-9, PHENOBARBITAL AND BETA-NAPHTHOFLAVONE, Method: PREINCUBATION) is “inactive; negative”; the mutagenic call under setting [8] was “inactive; negative”; the mutagenic call (Test System: AMES SALMONELLA TYPHIMURIUM, Strain/Indicator: TA100, Metabolic Activation: S-9, Method: STANDARD PLATE) was “inactive; negative”. Besides, the mutagenic call under setting [9] is “inactive; negative”; the mutagenic call under setting [10] was “inactive; negative”; the mutagenic call (Test System: AMES SALMONELLA TYPHIMURIUM, Strain/Indicator: TA1535, Metabolic Activation: RAT LIVER S-9, PHENOBARBITAL AND BETA-NAPHTHOFLAVONE, Method: PREINCUBATION) was “inactive; negative”; the mutagenic call under setting [11] was “inactive; negative”; the mutagenic call under setting [12] is “inactive; negative”; the mutagenic call under setting [13] is “inactive; negative”. Further, the mutagenic call was “inactive; negative” (Test System: AMES SALMONELLA TYPHIMURIUM, Strain/Indicator: TA1537, Metabolic Activation: RAT LIVER S-9, PHENOBARBITAL AND BETA-NAPHTHOFLAVONE, Method: PREINCUBATION); “inactive; negative” under setting [14]; “inactive; negative” (Test System: AMES SALMONELLA TYPHIMURIUM, Strain/Indicator: TA1538, Metabolic Activation: NONE, Method: PREINCUBATION); “inactive; negative” (Test System: AMES SALMONELLA TYPHIMURIUM, Strain/Indicator: TA1538, Metabolic Activation: RAT LIVER S-9, PHENOBARBITAL AND BETA-NAPHTHOFLAVONE, Method: PREINCUBATION); “inactive; negative” (Test System: E.COLI, Strain/Indicator: WP2UVRA, Metabolic Activation: NONE, Method: PREINCUBATION); “inactive; negative” (Test System: E.COLI, Strain/Indicator: WP2UVRA, Metabolic Activation: RAT LIVER S-9, PHENOBARBITAL AND BETA-NAPHTHOFLAVONE, Method: PREINCUBATION).

With `CCCCCCCCCCCC[N+](C)(C)COCCCCCCCC`, the mutagenic call reads like this: (Test System: BACILLUS SUBTILIS, Strain/Indicator: H17/REC, Metabolic Activation: NONE, Method: STANDARD PLATE) “inactive; negative”; (Test System: BACILLUS SUBTILIS, Strain/Indicator: M45, Metabolic Activation: NONE, Method: STANDARD PLATE) “inactive; negative”.

In the case of `CC(=O)N[C@@H](C(=O)N(CC(=O)O)N=O)C(C)C`, the mutagenic call reads like this: under setting [7], “active; positive”; under setting [15], “active; positive”; (Test System: CHO/HGPRT, Strain/Indicator: CHO-K1-BH4, Metabolic Activation: NONE) “active; positive”.

As for `CCCCOC(=O)c1ccccc1C(=O)OC1CCCCC1`, the mutagenic call is, setting by setting: under setting [1], “inactive; negative”; under setting [2], “inactive; negative”; under setting [4], “inactive; negative”; under setting [5], “inactive; negative”; under setting [6], “inactive; negative”; under setting [8], “inactive; negative”. Further, the mutagenic call reads like this: under setting [9], “inactive; negative”; under setting [10], “inactive; negative”; under setting [11], “inactive; negative”; under setting [12], “inactive; negative”; under setting [13], “inactive; negative”; under setting [14], “inactive; negative”.

In the case of `CC(C)Nc1nc(Cl)nc(NC(C)C)n1`, the mutagenic call is “inactive; negative” (Test System: AMES SALMONELLA TYPHIMURIUM, Strain/Indicator: TA97, Metabolic Activation: NONE, Method: STANDARD PLATE); “inactive; negative” (Test System: AMES SALMONELLA TYPHIMURIUM, Strain/Indicator: TA97, Metabolic Activation: RAT, LIVER, S-9, AROCLOR 1254, Method: STANDARD PLATE); “inactive; negative” (Test System: AMES SALMONELLA TYPHIMURIUM, Strain/Indicator: TA97A, Metabolic Activation: NONE, Method: STANDARD PLATE); “inactive; negative” (Test System: AMES SALMONELLA TYPHIMURIUM, Strain/Indicator: TA97A, Metabolic Activation: RAT, LIVER, S-9, AROCLOR 1254, Method: STANDARD PLATE); “inactive; negative” under setting [3]; “inactive; negative” (Test System: AMES SALMONELLA TYPHIMURIUM, Strain/Indicator: TA98, Metabolic Activation: RAT, LIVER, S-9, AROCLOR 1254, Method: STANDARD PLATE). The mutagenic call was “inactive; negative” under setting [7]; “inactive; negative” under setting [15]; “inactive; negative” (Test System: AMES SALMONELLA TYPHIMURIUM, Strain/Indicator: TA102, Metabolic Activation: NONE, Method: STANDARD PLATE); “inactive; negative” (Test System: AMES SALMONELLA TYPHIMURIUM, Strain/Indicator: TA102, Metabolic Activation: RAT, LIVER, S-9, AROCLOR 1254, Method: STANDARD PLATE); “inactive; negative” (Test System: AMES SALMONELLA TYPHIMURIUM, Strain/Indicator: TA1535, Metabolic Activation: NONE, Method: STANDARD PLATE); “inactive; negative” (Test System: AMES SALMONELLA TYPHIMURIUM, Strain/Indicator: TA1535, Metabolic Activation: RAT, LIVER, S-9, AROCLOR 1254, Method: STANDARD PLATE). Also, the mutagenic call is, setting by setting: (Test System: AMES SALMONELLA TYPHIMURIUM, Strain/Indicator: TA1537, Metabolic Activation: NONE, Method: STANDARD PLATE) “inactive; negative”; (Test System: AMES SALMONELLA TYPHIMURIUM, Strain/Indicator: TA1537, Metabolic Activation: RAT, LIVER, S-9, AROCLOR 1254, Method: STANDARD PLATE) “inactive; negative”; (Test System: AMES SALMONELLA TYPHIMURIUM, Strain/Indicator: TA1538, Metabolic Activation: NONE, Method: STANDARD PLATE) “inactive; negative”; (Test System: AMES SALMONELLA TYPHIMURIUM, Strain/Indicator: TA1538, Metabolic Activation: RAT, LIVER, S-9, AROCLOR 1254, Method: STANDARD PLATE) “inactive; negative”.
